Experimental data taken from ChEMBL document CHEMBL1201862, “PubChem BioAssay data set” (2004).
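Method: 48-hour compound exposure of cells in 96-well plates, five concentrations, linear interpolation of endpoints. At the GI50, growth is halved.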 Calls of active or inactive are those of the source. Cut-off read from the data, not from the text of the source: active = GI50 up to about 1.1 µM and inactive = higher.

Columns and labels:
Assay in all cases: NCI tumour cell line growth inhibition, 48 h
NCI-H522 = tested on: NCI-H522
ACHN = tested on: ACHN
COLO 205 = tested on: COLO 205
MOLT-4 = tested on: MOLT-4
NCI/ADR-RES = tested on: NCI/ADR-RES
A549 = tested on: A549
Malme-3M = tested on: Malme-3M
SNB-75 = tested on: SNB-75
NCI-H23 = tested on: NCI-H23
OVCAR-3 = tested on: OVCAR-3
HT-29 = tested on: HT-29
SNB-19 = tested on: SNB-19
SF-295 = tested on: SF-295
HOP-62 = tested on: HOP-62
CAKI-1 = tested on: CAKI-1
RXF 393 = tested on: RXF 393
UACC-62 = tested on: UACC-62
T47D = tested on: T47D
UO-31 = tested on: UO-31

SMILES | GI50 (NCI-H522) | GI50 (ACHN) | GI50 (COLO 205) | GI50 (MOLT-4) | GI50 (NCI/ADR-RES) | GI50 (A549) | GI50 (Malme-3M) | GI50 (SNB-75) | GI50 (NCI-H23) | GI50 (OVCAR-3) | GI50 (HT-29) | GI50 (SNB-19) | GI50 (SF-295) | GI50 (HOP-62) | GI50 (CAKI-1) | GI50 (RXF 393) | GI50 (UACC-62) | GI50 (T47D) | GI50 (UO-31)
CCN(CC)C(=S)N/N=C1\C(=O)Nc2ccccc21 | 3.03 µM (inactive) | 0.42 µM (active) | 0.659 µM (active) | 0.653 µM (active) | 0.152 µM (active) | 0.638 µM (active) | 0.298 µM (active) | 1.31 µM (inactive) | 2.9 µM (inactive) | 0.192 µM (active) | 1.18 µM (inactive) | 1.69 µM (inactive) | 0.45 µM (active) | 0.431 µM (active) | 0.895 µM (active) | 1.3 µM (inactive) | 1.31 µM (inactive) | – | –
N/N=C1N=C(Cl)/C(=C/c2ccco2)N\1 | 22.7 µM (inactive) | 50.4 µM (inactive) | 43.1 µM (inactive) | 11.9 µM (inactive) | 44.5 µM (inactive) | 38 µM (inactive) | 52.5 µM (inactive) | 32.7 µM (inactive) | 54.8 µM (inactive) | 28.7 µM (inactive) | 34.9 µM (inactive) | 50.5 µM (inactive) | 38.1 µM (inactive) | 59.2 µM (inactive) | 48.6 µM (inactive) | 65.2 µM (inactive) | – | 40.4 µM (inactive) | 43.1 µM (inactive)
CN(C)Cc1cc(C(C)(C)C)cc(C2CCCCC2)c1O | 20.2 µM (inactive) | 15.5 µM (inactive) | 14.2 µM (inactive) | 10.8 µM (inactive) | 19.6 µM (inactive) | 13.6 µM (inactive) | 2.15 µM (inactive) | 10.3 µM (inactive) | 24.9 µM (inactive) | 14.2 µM (inactive) | 2.86 µM (inactive) | 13 µM (inactive) | – | 18 µM (inactive) | 19.9 µM (inactive) | 12.6 µM (inactive) | 16.1 µM (inactive) | 3.58 µM (inactive) | 17.7 µM (inactive)
CCOC(=O)NC(NC1=NCCS1)(C(=O)OCC)C(F)(F)F (stereo not given) | > 100 µM (inactive) | > 100 µM (inactive) | > 100 µM (inactive) | > 100 µM (inactive) | > 100 µM (inactive) | > 100 µM (inactive) | > 100 µM (inactive) | > 100 µM (inactive) | > 100 µM (inactive) | > 100 µM (inactive) | > 100 µM (inactive) | > 100 µM (inactive) | > 100 µM (inactive) | > 100 µM (inactive) | > 100 µM (inactive) | > 100 µM (inactive) | – | > 100 µM (inactive) | > 100 µM (inactive)
O=C1NC(=S)NC(=O)C1=Cc1ccc2ccccc2n1 | > 100 µM (inactive) | > 100 µM (inactive) | > 100 µM (inactive) | > 100 µM (inactive) | – | > 100 µM (inactive) | > 100 µM (inactive) | > 100 µM (inactive) | > 100 µM (inactive) | > 100 µM (inactive) | > 100 µM (inactive) | > 100 µM (inactive) | > 100 µM (inactive) | > 100 µM (inactive) | > 100 µM (inactive) | > 100 µM (inactive) | > 100 µM (inactive) | – | > 100 µM (inactive)
CCOC(=O)N(C)C1(c2ccccc2)CCN(CCCC(=O)c2ccc(F)cc2)CC1 | 87.9 µM (inactive) | 84.1 µM (inactive) | 15.4 µM (inactive) | 31.8 µM (inactive) | 47.8 µM (inactive) | 92.3 µM (inactive) | 15.3 µM (inactive) | – | 68.7 µM (inactive) | 44 µM (inactive) | 19.7 µM (inactive) | 0.0647 µM (active) | 42.4 µM (inactive) | 38.5 µM (inactive) | 2.16 µM (inactive) | 57.8 µM (inactive) | 42.1 µM (inactive) | 61.1 µM (inactive) | 0.0148 µM (active)
COC(=O)/C(C#N)=C1\CCC(OC)N1C (stereo not given) | > 100 µM (inactive) | > 100 µM (inactive) | > 100 µM (inactive) | > 100 µM (inactive) | – | > 100 µM (inactive) | > 100 µM (inactive) | > 100 µM (inactive) | > 100 µM (inactive) | > 100 µM (inactive) | > 100 µM (inactive) | > 100 µM (inactive) | > 100 µM (inactive) | > 100 µM (inactive) | > 100 µM (inactive) | > 100 µM (inactive) | > 100 µM (inactive) | – | > 100 µM (inactive)
COC(=O)c1ccccc1CC1Cc2cc3c(cc2C1)CCC3 | 28.6 µM (inactive) | 36.6 µM (inactive) | 23.8 µM (inactive) | 18.5 µM (inactive) | > 100 µM (inactive) | 36.1 µM (inactive) | 21.3 µM (inactive) | 26.7 µM (inactive) | 38.5 µM (inactive) | 32.7 µM (inactive) | 29.2 µM (inactive) | 74.1 µM (inactive) | 33.7 µM (inactive) | 41.4 µM (inactive) | 37.9 µM (inactive) | 20.9 µM (inactive) | – | 50.9 µM (inactive) | 39.4 µM (inactive)
COc1c(F)c(F)c(C(=O)/C=C2\Nc3ccccc3NC2=O)c(F)c1F | – | – | > 10 µM (inactive) | > 10 µM (inactive) | – | 9.16 µM (inactive) | > 10 µM (inactive) | 2.25 µM (inactive) | > 10 µM (inactive) | – | 6.98 µM (inactive) | – | 5.52 µM (inactive) | 4.41 µM (inactive) | > 10 µM (inactive) | 9.51 µM (inactive) | > 10 µM (inactive) | 4.67 µM (inactive) | –
COc1ccc(-c2cc(-c3cc(Cl)cc(Br)c3O)nc(O)n2)cc1 | 13.4 µM (inactive) | 14.2 µM (inactive) | 15.6 µM (inactive) | 13.2 µM (inactive) | – | 16.7 µM (inactive) | 19.4 µM (inactive) | 15.4 µM (inactive) | 14 µM (inactive) | 17.5 µM (inactive) | 17.7 µM (inactive) | 23.9 µM (inactive) | 18 µM (inactive) | 14.1 µM (inactive) | 16.4 µM (inactive) | 14.5 µM (inactive) | 14.9 µM (inactive) | – | 17.3 µM (inactive)
COC(=O)C1=Cc2cc(OC)c(OC)c(OC)c2[C@H](c2cc(OC)c(OC)c(OC)c2)C1C(=O)OC (stereo not given in full) | > 100 µM (inactive) | > 100 µM (inactive) | > 100 µM (inactive) | > 100 µM (inactive) | – | > 100 µM (inactive) | > 100 µM (inactive) | > 100 µM (inactive) | > 100 µM (inactive) | > 100 µM (inactive) | > 100 µM (inactive) | > 100 µM (inactive) | > 100 µM (inactive) | > 100 µM (inactive) | > 100 µM (inactive) | > 100 µM (inactive) | > 100 µM (inactive) | – | > 100 µM (inactive)
C1CN(P2(N3CC3)=NP(N3CC3)(N3CC3)=NP(N3CC3)(N3CC3)=N2)CCO1 (stereo not given) [FOTRETAMINE] | > 100 µM (inactive) | 37.5 µM (inactive) | > 100 µM (inactive) | 8.2 µM (inactive) | – | > 100 µM (inactive) | > 100 µM (inactive) | 55.7 µM (inactive) | 27.4 µM (inactive) | > 100 µM (inactive) | > 100 µM (inactive) | > 100 µM (inactive) | 54.7 µM (inactive) | 26.6 µM (inactive) | > 100 µM (inactive) | > 100 µM (inactive) | > 56.6 µM (inactive) | – | > 100 µM (inactive)
